The target in the experiment is T1, human mGluR5d (Homo sapiens, UniProt P41594).
T1 construct: expressed in transfected cells
As to the kind of experiment: IP3 assay (phosphatidylinositol turnover, functional mGluR5 antagonism). Format: cell-based. As to conditions: GHEK cells stably expressing human mGluR5d; glutamate (80 μM) or DHPG (30 μM) as agonist. The text has this:
Biological Evaluation Functional Assessment of mGluR5 Antagonism in Cell Lines Expressing mGluR5D
The properties of the compounds of the invention can be analyzed using standard assays for pharmacological activity. Examples of glutamate receptor assays are well known in the art as described in for example Aramori et al., Neuron 8:757 (1992), Tanabe et al., Neuron 8:169 (1992), Miller et al., J. Neuroscience 15: 6103 (1995), Balazs, et al., J. Neurochemistry 69:151 (1997). The methodology described in these publications is incorporated herein by reference. Conveniently, the compounds of the invention can be studied by means of an assay (FLIPR) that measures the mobilization of intracellular calcium, [Ca^2+]i in cells expressing mGluR5 or another assay (IP3) that measures inositol phosphate turnover.
An additional functional assay for mGluR5d is described in WO97/05252 and is based on phosphatidylinositol turnover. Receptor activation stimulates phospholipase C activity and leads to increased formation of inositol 1,4,5,triphosphate (IP3).
GHEK stably expressing the human mGluR5d are seeded onto 24 well poly-L-lysine coated plates at 40×10^4 cells/well in media containing 1 μCi/well [3H] myo-inositol. Cells were incubated overnight (16 h), then washed three times and incubated for 1 h at 37° C. in HEPES buffered saline (146 mM NaCl, 4.2 mM KCl, 0.5 mM MgCl2, 0.1% glucose, 20 mM HEPES, pH 7.4) supplemented with 1 unit/ml glutamate pyruvate transaminase and 2 mM pyruvate. Cells are washed once in HEPES buffered saline and pre-incubated for 10 min in HEPES buffered saline containing 10 mM LiCl. Compounds are incubated in duplicate at 37° C. for 15 min, then either glutamate (80 μM) or DHPG (30 μM) is added and incubated for an additional 30 min. The reaction is terminated by the addition of 0.5 ml perchloric acid (5%) on ice, with incubation at 4° C. for at least 30 min. Samples are collected in 15 ml polyproplylene tubes and inositol phosphates are separated using ion-exchange resin (Dowex AG1-X8 formate form, 200-400 mesh, BIORAD) columns. Inositol phosphate separation was done by first eluting glycero phosphatidyl inositol with 8 ml 30 mM ammonium formate. Next, total inositol phosphates is eluted with 8 ml 700 mM ammonium formate/100 mM formic acid and collected in scintillation vials. This eluate is then mixed with 8 ml of scintillant and [3H] inositol incorporation is determined by scintillation counting. The dpm counts from the duplicate samples are plotted and IC50 determinations are generated using a linear least squares fitting program.

The structures appear in SMILES notation.

IC50 data for five compounds are collected here from patent US7960422B2, “Pharmaceutically active compounds containing tetrazolyl and triazolyl rings” (AstraZeneca AB, priority 2007, dated 2011).

A word on the IC50: it is the point on the concentration scale where inhibition reaches its midpoint. Higher therefore signals weaker potency.

T1 sequence (P41594 21-942 isoform P41594-3 limits assumed): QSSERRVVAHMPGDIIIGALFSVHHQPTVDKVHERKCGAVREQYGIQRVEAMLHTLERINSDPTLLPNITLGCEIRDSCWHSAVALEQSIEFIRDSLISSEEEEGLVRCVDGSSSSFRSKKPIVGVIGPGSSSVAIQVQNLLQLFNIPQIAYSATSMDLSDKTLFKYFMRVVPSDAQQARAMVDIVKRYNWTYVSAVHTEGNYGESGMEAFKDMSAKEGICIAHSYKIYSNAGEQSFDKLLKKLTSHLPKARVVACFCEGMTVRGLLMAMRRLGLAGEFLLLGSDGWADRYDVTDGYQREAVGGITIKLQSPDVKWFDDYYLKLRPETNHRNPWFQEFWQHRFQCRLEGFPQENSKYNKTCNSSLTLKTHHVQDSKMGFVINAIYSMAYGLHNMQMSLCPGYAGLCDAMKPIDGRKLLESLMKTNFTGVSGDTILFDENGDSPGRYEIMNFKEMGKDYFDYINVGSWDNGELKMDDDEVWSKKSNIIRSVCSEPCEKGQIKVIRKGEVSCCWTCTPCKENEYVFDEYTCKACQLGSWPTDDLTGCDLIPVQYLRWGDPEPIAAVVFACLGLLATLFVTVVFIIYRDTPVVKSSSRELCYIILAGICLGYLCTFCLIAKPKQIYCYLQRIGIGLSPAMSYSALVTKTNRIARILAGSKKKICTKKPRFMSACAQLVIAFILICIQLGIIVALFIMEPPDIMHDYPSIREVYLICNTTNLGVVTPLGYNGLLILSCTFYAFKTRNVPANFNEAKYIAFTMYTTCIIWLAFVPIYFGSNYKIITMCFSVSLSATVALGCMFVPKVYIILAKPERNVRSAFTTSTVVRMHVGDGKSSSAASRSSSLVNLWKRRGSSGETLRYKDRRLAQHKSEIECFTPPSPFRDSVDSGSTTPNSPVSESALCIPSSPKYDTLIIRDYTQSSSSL

Compound `Cc1cccc(-n2nnc([C@@H](C)Oc3nnc(-c4cncnc4)n3C)n2)c1` [Example 10.2, 5-(4-methyl-5-{(1R)-1-[2-(3-methylphenyl)-2H-tetrazol-5-yl]ethoxy}-4H-1,2,4-triazol-3-yl)pyrimidine] came in with an IC50 of 25 nM.
On to `Cc1cccc(-n2nnc([C@@H](C)Oc3nnc(-c4ccnc(C)c4)n3C)n2)c1` [Example 10.4, 2-methyl-4-(4-methyl-5-{(1R)-1-[2-(3-methylphenyl)-2H-tetrazol-5-yl]ethoxy}-4H-1,2,4-triazol-3-yl)pyridine], for which the half-maximal inhibitory concentration (IC50) came to 20 nM.
The same measure for `Cc1cccc(-n2nnc([C@@H](C)Oc3nnc(-c4cnc(C)cn4)n3C)n2)c1` [Example 10.3, 2-methyl-5-(4-methyl-5-{(1R)-1-[2-(3-methylphenyl)-2H-tetrazol-5-yl]ethoxy}-4H-1,2,4-triazol-3-yl)pyrazine]: 22 nM; for `Cc1cccc(-n2nnc([C@@H](C)Oc3nnc(-c4ncccn4)n3C)n2)c1` [Example 10.1, 2-(4-methyl-5-{(1R)-1-[2-(3-methylphenyl)-2H-tetrazol-5-yl]ethoxy}-4H-1,2,4-triazol-3-yl)pyrimidine]: 36 nM.
`Cc1cccc(-n2nnc([C@@H](C)Oc3nnc(-c4cccnc4)n3C)n2)c1` [Example 10.5]: the IC50 is 23 nM. This IC50 lies about 1.6-fold lower than the previous one.
